According to US12522606B2, “Modified pyrrolo- and pyrazolo-pyrimidines for prostate cancer therapy” (University of Washington, priority 2020, dated 2026):

Legend:
[1] = background statement; cited from earlier work
[2] = background statement; cited from earlier work; remark: listed apart in the source
PC3 = test: MTT proliferation assay, PC3; details: Homo sapiens; for inhibition at 10 µM: PC-3, read-out: MTT % inhib @ 10 μM PC3; for EC50: read-out: EC50 PC3
PK Oral (MMV) = type: in vivo; details: for Cmax / Tmax: in vivo
in vitro [3] = details: human, CRL-8155 lymphoblastoid cell line
Text: (§1) HepG2 is hepatoma liver tumor cell line. CRL8155 is lymphoblastoid cell line.

in vitro [4] = details: human, HepG2 hepatoma cell line
Text: as §1

LNCaP95 = test: MTT proliferation assay, LNCaP95; type: cell-based; details: Homo sapiens, LNCaP-95; for EC50: Table 1, LNCaP95 (AR+ PCa), unit inferred; for inhibition at 10 µM: read-out: MTT % inhib @ 10 μM LNCaP95
Protocol: Anti-tumor activity was determined by screening a series of compounds against the castrate-resistant, androgen-receptor-positive, prostate cancer cell line LNCaP95. […] Inhibition of proliferation was determined based on the level of LNCaP95 cell growth suppression using an MTT assay (NAD(P)H-dependent cellular oxidoreductase enzymatic activities)) read at 72 and 96 hours after addition of the compounds. […] Each cell line was be tested in quadruplicate.

[5] = Plasma protein binding, mouse; type: in vitro ADME

CC(C)(C)n1nc(-c2cccc3ccccc23)c2c(N)ncnc21 [Example 1NA-PP1]
metabolism [1]: quickly metabolized | solubility [2]: low solubility

CC(C)(C)n1nc(Cc2cccc3ccccc23)c2c(N)ncnc21 [Example 1NM-PP1]
metabolism [1]: quickly metabolized | solubility [2]: low solubility

COCCOc1ncnc2c1c(-c1ccc3cc(OC4CC4)ccc3c1)cn2CC(C)(C)O [Example 2, 1-(5-(6-cyclopropoxynaphthalen-2-yl)-4-(2-methoxyethoxy)-7H-pyrrolo[2,3-d]pyrimidin-7-yl)-2-methylpropan-2-ol]
inhibition at 10 µM (PC3): 12.8% | EC50 (PC3): > 20 µM | AUC (PK Oral (MMV); dose 30.8 mg/kg): 822 µmol·min/L | Cmax (PK Oral (MMV); dose 30.8 mg/kg): 34.4 µM | Tmax (PK Oral (MMV); dose 30.8 mg/kg): 1 h | CC50 (in vitro [3]): > 40 µM | CC50 (in vitro [4]): > 40 µM | EC50 (LNCaP95): 6 µM | inhibition at 10 µM (LNCaP95): 32%

CCOc1ccc2cc(-c3cn(CC(C)(C)O)c4ncnc(OCCOC)c34)ccc2c1 [Example 3, 1-(5-(6-ethoxynaphthalen-2-yl)-4-(2-methoxyethoxy)-7H-pyrrolo[2,3-d]pyrimidin-7-yl)-2-methylpropan-2-ol]
inhibition at 10 µM (PC3): 2.9% | EC50 (PC3): > 20 µM | AUC (PK Oral (MMV); dose 25 mg/kg): 2559 µmol·min/L | Cmax (PK Oral (MMV); dose 25 mg/kg): 5.1 µM | Tmax (PK Oral (MMV); dose 25 mg/kg): 0.667 h | EC50 (LNCaP95): 7 µM | inhibition at 10 µM (LNCaP95): 36.5%

COCCOc1ncnc2c1c(-c1ccc(-c3ccccc3)cc1)cn2CC(C)(C)O [Example 4, 1-(5-(biphenyl-4-yl)-4-(2-methoxyethoxy)-7H-pyrrolo[2,3-d]pyrimidin-7-yl)-2-methylpropan-2-ol]
inhibition at 10 µM (PC3): 13% | EC50 (PC3): > 20 µM | CC50 (in vitro [3]): > 80 µM | EC50 (LNCaP95): 5 µM | inhibition at 10 µM (LNCaP95): 36.3%

CCOc1ccc2cc(-c3cn(CC(C)(C)O)c4ncnc(OCC)c34)ccc2c1 [Example 5, 1-(4-ethoxy-5-(6-ethoxynaphthalen-2-yl)-7H-pyrrolo[2,3-d]pyrimidin-7-yl)-2-methylpropan-2-ol]
inhibition at 10 µM (PC3): -3.2% | EC50 (PC3): > 20 µM | CC50 (in vitro [3]): > 80 µM | CC50 (in vitro [4]): > 80 µM | EC50 (LNCaP95): 5 µM | inhibition at 10 µM (LNCaP95): 50.9%

CCOc1ncnc2c1c(-c1ccc3cc(OC4CC4)ccc3c1)cn2CC(C)(C)O [Example 6, 1-(5-(6-cyclopropoxynaphthalen-2-yl)-4-ethoxy-7H-pyrrolo[2,3-d]pyrimidin-7-yl)-2-methylpropan-2-ol]
inhibition at 10 µM (PC3): 10.1% | EC50 (PC3): > 20 µM | AUC (PK Oral (MMV); dose 24.6 mg/kg): 400 µmol·min/L | Cmax (PK Oral (MMV); dose 24.6 mg/kg): 17.6 µM | Tmax (PK Oral (MMV); dose 24.6 mg/kg): 1 h | CC50 (in vitro [3]): > 40 µM | CC50 (in vitro [4]): > 40 µM | EC50 (LNCaP95): 10 µM | inhibition at 10 µM (LNCaP95): 20.3%

CCOc1ccc2cc(-c3cn(CC(C)(C)O)c4ncnc(NC)c34)ccc2c1 [Example 11, 1-(5-(6-ethoxynaphthalen-2-yl)-4-(methylamino)-7H-pyrrolo[2,3-d]pyrimidin-7-yl)-2-methylpropan-2-ol]
fraction unbound [5]: 0.0019 | inhibition at 10 µM (PC3): 1.6% | EC50 (PC3): > 20 µM | CC50 (in vitro [3]): > 80 µM | CC50 (in vitro [4]): > 80 µM | EC50 (LNCaP95): 3 µM | inhibition at 10 µM (LNCaP95): 55.6%

CNc1ncnc2c1c(-c1ccc(-c3ccccc3)cc1)nn2CC(C)(C)O [Example 12, 1-(3-(biphenyl-4-yl)-4-(methylamino)-1H-pyrazolo[3,4-d]pyrimidin-1-yl)-2-methylpropan-2-ol]
inhibition at 10 µM (PC3): 8.4% | EC50 (PC3): > 20 µM | CC50 (in vitro [3]): > 80 µM | CC50 (in vitro [4]): > 80 µM | EC50 (LNCaP95): 12 µM | inhibition at 10 µM (LNCaP95): 36.7%

CNc1ncnc2c1c(-c1ccc(-c3ccccc3)cc1)cn2CC(C)(C)O [Example 13, 1-(5-(biphenyl-4-yl)-4-(methylamino)-7H-pyrrolo[2,3-d]pyrimidin-7-yl)-2-methylpropan-2-ol]
inhibition at 10 µM (PC3): -4.3% | EC50 (PC3): > 20 µM | CC50 (in vitro [3]): > 80 µM | CC50 (in vitro [4]): > 80 µM | EC50 (LNCaP95): 12 µM | inhibition at 10 µM (LNCaP95): 40.9%

CCOc1ccc2cc(-c3nn(CC(C)(C)O)c4ncnc(NC)c34)ccc2c1 [Example 14, 1-(3-(6-ethoxynaphthalen-2-yl)-4-(methylamino)-1H-pyrazolo[3,4-d]pyrimidin-1-yl)-2-methylpropan-2-ol]
fraction unbound [5]: 0.0079 | inhibition at 10 µM (PC3): -3.5% | EC50 (PC3): > 20 µM | CC50 (in vitro [3]): > 80 µM | CC50 (in vitro [4]): > 80 µM | EC50 (LNCaP95): 12 µM | inhibition at 10 µM (LNCaP95): 42.7%

CNc1ncnc2c1c(-c1ccc3cc(OC4CC4)ccc3c1)cn2CC(C)(C)O [Example 15, 1-(5-(6-cyclopropoxynaphthalen-2-yl)-4-(methylamino)-7H-pyrrolo[2,3-d]pyrimidin-7-yl)-2-methylpropan-2-ol]
fraction unbound [5]: 0.0017 | inhibition at 10 µM (PC3): 2.8% | EC50 (PC3): > 20 µM | CC50 (in vitro [3]): > 80 µM | CC50 (in vitro [4]): > 80 µM | EC50 (LNCaP95): 8 µM | inhibition at 10 µM (LNCaP95): 53.2%

CCOc1ccc2cc(-c3cn(CC(C)(C)OC)c4ncnc(NC)c34)ccc2c1 [Example 18, 5-(6-ethoxynaphthalen-2-yl)-7-(2-methoxy-2-methylpropyl)-N-methyl-7H-pyrrolo[2,3-d]pyrimidin-4-amine]
fraction unbound [5]: 0.0077 | inhibition at 10 µM (PC3): 21% | EC50 (PC3): > 20 µM | CC50 (in vitro [3]): > 80 µM | CC50 (in vitro [4]): > 80 µM | EC50 (LNCaP95): 3 µM | inhibition at 10 µM (LNCaP95): 44.9%

CNc1ncnc2c1c(-c1cccc(Cl)c1)cn2CC(C)(C)OC [Example 22, 5-(3-chlorophenyl)-7-(2-methoxy-2-methylpropyl)-N-methyl-7H-pyrrolo[2,3-d]pyrimidin-4-amine]
inhibition at 10 µM (PC3): 4.3% | EC50 (PC3): > 20 µM | CC50 (in vitro [3]): > 80 µM | CC50 (in vitro [4]): > 80 µM | EC50 (LNCaP95): 10 µM | inhibition at 10 µM (LNCaP95): 40.1%

CC(C)(O)Cn1cc(-c2ccc3cc(OC4CC4)ccc3c2)c2c(NCCOCCOCCOCCN)ncnc21 [Example 28, 1-(4-(2-(2-(2-(2-aminoethoxy)ethoxy)ethoxy)ethylamino)-5-(6-cyclopropoxynaphthalen-2-yl)-7H-pyrrolo[2,3-d]pyrimidin-7-yl)-2-methylpropan-2-ol]
inhibition at 10 µM (PC3): -8.3% | EC50 (PC3): > 20 µM | CC50 (in vitro [3]): 15.4 µM | CC50 (in vitro [4]): 30.7 µM | EC50 (LNCaP95): 4 µM | inhibition at 10 µM (LNCaP95): 43%

CCOCCNc1ncnc2c1c(-c1ccc3cc(OCC)ccc3c1)cn2CC(C)(C)O [Example 31, 1-(4-(2-ethoxyethylamino)-5-(6-ethoxynaphthalen-2-yl)-7H-pyrrolo[2,3-d]pyrimidin-7-yl)-2-methylpropan-2-ol]
inhibition at 10 µM (PC3): 14.9% | EC50 (PC3): > 20 µM | AUC (PK Oral (MMV); dose 25 mg/kg): 1724 µmol·min/L | Cmax (PK Oral (MMV); dose 25 mg/kg): 7.8 µM | Tmax (PK Oral (MMV); dose 25 mg/kg): 1 h | EC50 (LNCaP95): 10 µM | inhibition at 10 µM (LNCaP95): 34.9%

CNc1ncnc2c1c(-c1ccc3cc(OC(C)C)ccc3c1)cn2CC(C)(C)OC [Example 32, 5-(6-isopropoxynaphthalen-2-yl)-7-(2-methoxy-2-methylpropyl)-N-methyl-7H-pyrrolo[2,3-d]pyrimidin-4-amine]
fraction unbound [5]: 0.0069 | inhibition at 10 µM (PC3): 14.6% | EC50 (PC3): > 20 µM | EC50 (LNCaP95): 3 µM | inhibition at 10 µM (LNCaP95): 5.1%

CNc1ncnc2c1c(-c1ccc(-c3ccc(Br)cc3)cc1)cn2CC(C)(C)OC [Example 33, 5-(4′-bromobiphenyl-4-yl)-7-(2-methoxy-2-methylpropyl)-N-methyl-7H-pyrrolo[2,3-d]pyrimidin-4-amine]
fraction unbound [5]: 0.0064 | inhibition at 10 µM (PC3): 11.4% | EC50 (PC3): > 20 µM | EC50 (LNCaP95): 5 µM | inhibition at 10 µM (LNCaP95): 30.7%
